As usually defined, the clearance is the rate of elimination divided by the concentration. High values mean efficient removal, low ones inefficient removal. A word on the half-life: it is how long it takes for the measured level to halve. A word on the Tmax: it is the time from dosing to the highest level. By bioavailability is commonly meant dose-corrected exposure relative to a reference, in per cent. A high value points to good availability.

The values that follow come from US9809562B2, “NAT10 modulators for treating or preventing laminopathies, aging and cancer” (CAMBRIDGE ENTERPRISE LIMITED, priority 2014, dated 2017).

Where a name gives a salt, the structure may show the parent alone. Read-outs that look alike come from different tables or passages of the source.

Data set [1] concerns main lysine acetyltranferase proteins (KAT). Put plainly: In vitro specificity against lysine acetyltransferases. The format is biochemical.
Data set [2] deals with GFP-H2B expressing U2OS cells transfected with siLMNA. Kind of data set: Live imaging of GFP-H2B cells. The conditions noted are these: Compound 2 at 50 μM, independently of mitosis. The format is cell-based, human. As for the experimental part:
U2OS cells were transfected with siLMNA for 48 hours before addition of (Compound 2) at 50 μM. Pictures were acquired every 15 minutes for 16 hours in z-stack of 0.2 μm interval with a Deltavision PersonalDV (Applied Precision, 512×512 CoolSNAP HQ2 camera) equipped with a 100× UPlanSApo/1.40 oil objective (Olympus) and controlled with SoftWoRx software (Applied Precision). Movies were then assembled from pictures with ImageJ software.

A short description of data set [3]: Pharmacokinetics assay of Remodelin in mice. Type of data set: in vivo. The conditions noted are these: ICR mice; for half-life: read-out: half-life (T½) (converted). Here is the method: FIG. 17: Pharmacokinetics assay of Remodelin in mice. A) The pharmacokinetics of Remodelin was evaluated in ICR mice following IV at 1 mg/kg and PO at 5 mg/kg dose level. […] B) Details of the results obtained in the curves shown in A).

The subject of data set [4] is HGPS cells. Put plainly: EdU incorporation by flow cytometry in HGPS cells. The conditions noted are these: 2 hours EdU. Type of data set: cell-based, human. As for the experimental part: 10 μM EdU was incubated for 2 hours when indicated. Cells were fixed in 4% paraformaldehyde (Sigma-Aldrich). EdU was fluorescently labeled using the Click-iT® EdU Flow Cytometry Assay Kit (Life Sciences). DNA was stained with […] propidium iodide (Sigma-Aldrich) in phosphate buffer solution (PBS) containing 0.1% Triton-X-100 and 0.5 mg ml^−1 DNase free RNase A (Sigma-Aldrich). Samples were processed on a FACSCalibur flow cytometer equipped with CellQuest software (Becton Dickinson). Results were analysed using FlowJo software (TreeStar).
In general terms: Flow cytometry measures light scatter and fluorescence of single cells or particles in a stream.

Data set [5] deals with tubulin in U2OS cells. Put plainly: Analysis of soluble or polymerised tubulin. The format is cell-based, human. The conditions noted are these: 5 μM Remodelin 16 hours. As for the experimental part: U2OS cells pre-treated with 5 μM Remodelin for 16 hours or with 10 μM nocodazole for 8 hours, were lysed in MT Stabilization Buffer (MSB) (85 mM PIPES [pH 6.9], 1 mM EGTA, 1 mM MgCl2, 2M glycerol, 0.5% Triton with 4 μg/ml Taxol). Lysates were kept at 4° C. for 2 minutes and then centrifuged for 10 minutes at 13,000 rpm. Supernatants, representing the soluble fraction of proteins, were transferred to new tubes, and Laemmli buffer was added. Pellets, representing the polymerized fraction of proteins, were washed once in MSB without Triton, and then resuspended in Laemmli buffer. Equal amounts of lysate were loaded on a gradient gel.

The subject of data set [6] is SUN1 in siLMNA cells. Kind of data set: SUN1 expression and localization in siLMNA cells. Type of data set: cell-based, human. Here is the method:
Cells were washed with PBS and fixed for 20 minutes with 2% PFA in PBS. Cells were permeabilised for 5 minutes with PBS/0.2% Triton X-100, and blocked with PBS/0.2% Tween 20 (PBS-T) containing 5% BSA. Coverslips were incubated for 1 hour with primary antibodies and for 30 minutes with appropriate secondary antibodies coupled to Alexa Fluor 488 or 594 fluorophores (Life Technologies), before being incubated with 2 μg/ml DAPI. Pictures were acquired with a FluoView 1000 confocal microscope (Olympus). For high resolution imaging, z-stacks were acquired with a Deltavision PersonalDV (Applied Precision, 1024×1024 CoolSNAP HQ2 camera, z-stack of 0.2 μm interval) or with a Deltavision OMX V3 in conventional mode (Applied Precision, 512×512 Cascade II cameras (Photometrics), z-stack of 0.125 μm interval) both equipped with a 100× UPlanSApo/1.40 oil objective (Olympus) and controlled with SoftWoRx software (Applied Precision). Deconvolutions were then performed with SoftWoRx (Applied Precision) in conservative mode. The different channels were acquired sequentially.

Data set [7] concerns siLMNA cells and HGPS cells. Put plainly: Microtubules regrowth assay. Type of data set: cell-based, human. The conditions noted are these: t=15 minutes after cold depolymerization, 5 to 10 μM Remodelin 16 hours. As for the experimental part:
48 hours after siRNA transfections, microtubules were depolymerized by cold treatment at 4° C. for 1 hour in cells pre-treated or not with 5 to 10 μM Remodelin for 16 hours. Cold medium was replaced by pre-warmed medium and cells were incubated at 37° C. for 5 or 15 minutes to allow microtubules nucleation and anchorage respectively. Cells were fixed in PFA and stained with anti α-Tubulin antibody as described in the immunofluorescence procedure.

The target in data set [8] is T1, NAT10 (Homo sapiens, UniProt Q9H0A0).
T1 construct: endogenous in cells; host or cells: U2OS
Put plainly: Clickable small molecule pull-down from live cells, western blotting. The format is binding. The conditions noted are these: pre-incubated in live U2OS cells, biotin linker, streptavidin beads. As for the experimental part:
Biotinylated Compound 3 and PEG4 biotinylated Compound A were generated in situ from Compounds 2 and 3, pre-incubated in live cells for 2 h prior to adding commercially available PEG4 carboxamide-6-azidohexanyl biotin and click reagents in cell extracts (used in click-pull-down and western blotting validation).
Click reaction reagents were added to the cell lysates as follows: 10 μM biotin azide (PEG4 carboxamide-6-Azidohexanyl Biotin, Life Sciences), 10 mM sodium ascorbate (Sigma-Aldrich), 2 mM CuSO4 (Life Sciences). Click reactions were incubated in the dark for 1 hour at 4° C. with rotation. Streptavidin beads were then incubated for 1 hour and samples were eluted and loaded on a gel as described above, before immunoblotting.
In general terms: Immunoblotting shows a protein as a band on a membrane.

T1 sequence (Q9H0A0 whole entry): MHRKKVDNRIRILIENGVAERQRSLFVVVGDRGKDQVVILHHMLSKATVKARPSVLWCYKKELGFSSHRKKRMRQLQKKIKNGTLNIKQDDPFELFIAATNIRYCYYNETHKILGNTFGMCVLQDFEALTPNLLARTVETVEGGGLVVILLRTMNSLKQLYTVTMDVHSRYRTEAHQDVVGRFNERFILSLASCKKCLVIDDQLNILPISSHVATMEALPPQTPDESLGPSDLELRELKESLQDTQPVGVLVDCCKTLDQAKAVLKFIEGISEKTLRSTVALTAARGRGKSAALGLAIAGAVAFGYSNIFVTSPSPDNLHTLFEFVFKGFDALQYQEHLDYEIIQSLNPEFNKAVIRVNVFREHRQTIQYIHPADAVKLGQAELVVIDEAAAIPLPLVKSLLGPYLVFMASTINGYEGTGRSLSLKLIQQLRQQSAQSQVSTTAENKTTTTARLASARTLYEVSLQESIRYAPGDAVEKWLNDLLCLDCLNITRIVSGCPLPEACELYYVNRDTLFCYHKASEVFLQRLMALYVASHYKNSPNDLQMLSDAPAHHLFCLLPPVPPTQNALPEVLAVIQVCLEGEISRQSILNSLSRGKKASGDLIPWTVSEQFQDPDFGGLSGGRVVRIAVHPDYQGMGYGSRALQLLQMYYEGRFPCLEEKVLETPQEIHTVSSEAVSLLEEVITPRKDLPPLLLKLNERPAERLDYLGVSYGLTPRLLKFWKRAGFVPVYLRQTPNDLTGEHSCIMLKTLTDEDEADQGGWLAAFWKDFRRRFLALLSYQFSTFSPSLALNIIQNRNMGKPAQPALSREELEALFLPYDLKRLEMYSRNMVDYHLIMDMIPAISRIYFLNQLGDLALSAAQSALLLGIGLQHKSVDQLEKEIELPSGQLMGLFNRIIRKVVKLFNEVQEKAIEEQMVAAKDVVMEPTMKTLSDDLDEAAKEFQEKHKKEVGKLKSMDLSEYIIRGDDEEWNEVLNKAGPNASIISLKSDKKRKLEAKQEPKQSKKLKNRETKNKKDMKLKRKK

In the case of `Clc1ccc(-c2csc(NN=C3CCCC3)n2)cc1` [Compound 2, 4-(4-Chlorophenyl)-2-(2-cyclopentylidenehydrazinyl)thiazole Hydrochloride Salt], the “inhibition of KAT activity towards histone substrates” value in data set [1] is reported as “does not inhibit the activity of the main lysine acetyltranferase proteins (KAT)”. In addition, the “time to complete nuclear shape rescue” value in data set [2] was ≤ 12 h.

Turning to `N#Cc1ccc(-c2csc(NN=C3CCCC3)n2)cc1` [Compound 1, 4-(4-Cyanophenyl)-2-(2-cyclopentylidenehydrazinyl)thiazole], the Oral exposure (AUC0-∞) in data set [3] (PO 5 mg/kg) was 259 ng·h/mL. Besides, in data set [3] (mouse, plasma, IV 1 mg/kg), the clearance was found to be 139 mL/min/kg and the half-life was 54.9 min. For the same compound, in data set [3] (mouse, plasma, PO 5 mg/kg), the Tmax turned out to be 15 min and the half-life is 109 min. Besides, the bioavailability in data set [3] (mouse, plasma, PO 5 mg/kg vs IV 1 mg/kg) is 43.5%. The Cmax in data set [3] (mouse, plasma, PO 5 mg/kg, read-out: maximum plasma concentration (Cmax)) was determined as 409 ng/mL. Besides, the “DNA replication (EdU incorporation)” value in data set [4] is given as “improved DNA replication”. Besides, in data set [5], the “tubulin assembly into polymers” value is listed as “did not affect Golgi apparatus integrity (FIG. 13C) or tubulin assembly into polymers”. In addition, the “expression and localization of SUN1” value in data set [6] was “does not detectably affect the expression and localization of SUN1”. The “anchorage of microtubules to centrosomes” value in data set [7] is given as “anchorage of microtubules to centrosomes was clearly affected”.

Take `C#CCN(N=C1CCCC1)c1nc(-c2ccc(Cl)cc2)cs1` [Compound 3, 4-(4-Chlorophenyl)-2-(2-cyclopentylidene-1-(prop-2-yn-1-yl)hydrazinyl)thiazole]: the “retrieval of NAT10 in click pull-down” value in data set [8] was “specifically retrieved NAT10”.
